Experiments:
[1] = molecular target: Receptor-type tyrosine-protein kinase FLT3 (Homo sapiens) (UniProt P36888); test: Inhibition of FLT3 at 0.1 uM
[2] = molecular target: Vascular endothelial growth factor receptor 2 (Homo sapiens, UniProt P35968); conditions: at 0.1 µM
Description: Inhibition of KDR at 0.1 uM

[3] = molecular target: Mast/stem cell growth factor receptor Kit (Homo sapiens, UniProt P10721); test: Inhibition of cKIT at 0.1 uM
[4] = molecular target: Vascular endothelial growth factor receptor 3 (Homo sapiens, UniProt P35916); test: Inhibition of VEGFR3 at 0.1 uM
Vascular endothelial growth factor receptor 3, sequence (P35916 whole entry): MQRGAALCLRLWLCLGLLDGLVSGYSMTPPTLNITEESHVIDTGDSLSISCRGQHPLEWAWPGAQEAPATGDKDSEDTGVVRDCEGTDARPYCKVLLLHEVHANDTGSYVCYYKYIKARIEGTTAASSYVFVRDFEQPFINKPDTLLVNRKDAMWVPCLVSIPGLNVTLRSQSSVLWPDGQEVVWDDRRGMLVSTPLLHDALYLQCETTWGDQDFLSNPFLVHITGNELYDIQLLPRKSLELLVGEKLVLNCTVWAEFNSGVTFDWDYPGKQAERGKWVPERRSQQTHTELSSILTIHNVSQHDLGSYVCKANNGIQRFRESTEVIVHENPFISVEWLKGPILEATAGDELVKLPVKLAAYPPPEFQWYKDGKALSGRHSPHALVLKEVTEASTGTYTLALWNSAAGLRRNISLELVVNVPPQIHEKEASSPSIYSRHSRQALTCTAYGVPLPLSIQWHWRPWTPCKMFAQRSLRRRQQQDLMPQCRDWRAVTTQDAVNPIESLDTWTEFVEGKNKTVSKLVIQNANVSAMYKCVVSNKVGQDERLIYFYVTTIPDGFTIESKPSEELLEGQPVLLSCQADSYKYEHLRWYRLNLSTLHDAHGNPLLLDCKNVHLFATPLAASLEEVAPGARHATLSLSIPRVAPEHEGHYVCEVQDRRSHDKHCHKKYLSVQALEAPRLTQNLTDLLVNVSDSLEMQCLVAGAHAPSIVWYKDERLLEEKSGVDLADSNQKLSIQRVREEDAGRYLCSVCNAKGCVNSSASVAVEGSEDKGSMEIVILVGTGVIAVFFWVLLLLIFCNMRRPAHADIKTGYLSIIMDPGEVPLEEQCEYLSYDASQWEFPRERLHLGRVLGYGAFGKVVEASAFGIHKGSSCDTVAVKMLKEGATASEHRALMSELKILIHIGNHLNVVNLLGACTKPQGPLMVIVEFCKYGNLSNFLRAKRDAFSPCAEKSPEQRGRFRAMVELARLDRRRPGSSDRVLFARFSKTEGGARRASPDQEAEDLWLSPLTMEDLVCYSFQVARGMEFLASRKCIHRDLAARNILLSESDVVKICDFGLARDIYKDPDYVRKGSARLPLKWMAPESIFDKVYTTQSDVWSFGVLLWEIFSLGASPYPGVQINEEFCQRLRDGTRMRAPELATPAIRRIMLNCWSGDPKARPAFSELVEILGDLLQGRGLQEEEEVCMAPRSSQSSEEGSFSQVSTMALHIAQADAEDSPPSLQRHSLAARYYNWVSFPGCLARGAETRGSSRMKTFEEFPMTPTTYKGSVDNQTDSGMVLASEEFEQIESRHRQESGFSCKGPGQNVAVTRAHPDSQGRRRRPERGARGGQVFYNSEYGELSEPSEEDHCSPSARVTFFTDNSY

Vascular endothelial growth factor receptor 2, sequence (P35968 whole entry): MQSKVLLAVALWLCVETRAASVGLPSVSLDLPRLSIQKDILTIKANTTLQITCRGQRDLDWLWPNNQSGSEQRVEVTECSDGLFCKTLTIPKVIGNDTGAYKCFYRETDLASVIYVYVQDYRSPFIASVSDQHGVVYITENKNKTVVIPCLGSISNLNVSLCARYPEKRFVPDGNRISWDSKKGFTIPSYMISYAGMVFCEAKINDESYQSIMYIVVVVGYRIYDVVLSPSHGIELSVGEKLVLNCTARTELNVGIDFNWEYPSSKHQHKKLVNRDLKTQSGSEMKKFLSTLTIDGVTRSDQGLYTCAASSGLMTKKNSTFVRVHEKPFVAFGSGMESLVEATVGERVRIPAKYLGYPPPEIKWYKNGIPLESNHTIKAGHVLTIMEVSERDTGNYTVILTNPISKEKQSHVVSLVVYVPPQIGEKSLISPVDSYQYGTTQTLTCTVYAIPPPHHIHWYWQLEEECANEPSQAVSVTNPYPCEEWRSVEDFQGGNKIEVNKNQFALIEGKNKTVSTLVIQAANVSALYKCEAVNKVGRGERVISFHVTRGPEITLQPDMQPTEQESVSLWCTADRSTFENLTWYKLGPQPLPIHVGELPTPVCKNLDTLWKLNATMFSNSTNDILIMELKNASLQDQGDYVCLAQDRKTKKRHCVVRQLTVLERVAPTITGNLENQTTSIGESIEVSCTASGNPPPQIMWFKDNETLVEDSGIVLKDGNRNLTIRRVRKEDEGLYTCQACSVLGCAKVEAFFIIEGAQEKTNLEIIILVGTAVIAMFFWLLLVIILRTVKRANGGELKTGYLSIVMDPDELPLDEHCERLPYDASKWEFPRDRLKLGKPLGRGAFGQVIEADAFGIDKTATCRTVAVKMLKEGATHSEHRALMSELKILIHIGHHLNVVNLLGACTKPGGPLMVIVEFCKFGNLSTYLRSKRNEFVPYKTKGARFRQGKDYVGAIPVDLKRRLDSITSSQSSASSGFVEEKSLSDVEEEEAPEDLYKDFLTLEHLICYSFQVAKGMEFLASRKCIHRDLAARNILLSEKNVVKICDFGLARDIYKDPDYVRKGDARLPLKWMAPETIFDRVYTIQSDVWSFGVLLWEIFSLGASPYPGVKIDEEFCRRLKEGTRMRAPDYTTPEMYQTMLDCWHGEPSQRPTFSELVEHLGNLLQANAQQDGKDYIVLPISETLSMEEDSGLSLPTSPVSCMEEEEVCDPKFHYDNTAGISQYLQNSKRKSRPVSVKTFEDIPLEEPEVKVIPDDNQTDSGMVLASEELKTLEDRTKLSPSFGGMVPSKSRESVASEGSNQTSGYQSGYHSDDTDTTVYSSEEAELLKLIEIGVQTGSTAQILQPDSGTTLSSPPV
Mast/stem cell growth factor receptor Kit, sequence (P10721 whole entry): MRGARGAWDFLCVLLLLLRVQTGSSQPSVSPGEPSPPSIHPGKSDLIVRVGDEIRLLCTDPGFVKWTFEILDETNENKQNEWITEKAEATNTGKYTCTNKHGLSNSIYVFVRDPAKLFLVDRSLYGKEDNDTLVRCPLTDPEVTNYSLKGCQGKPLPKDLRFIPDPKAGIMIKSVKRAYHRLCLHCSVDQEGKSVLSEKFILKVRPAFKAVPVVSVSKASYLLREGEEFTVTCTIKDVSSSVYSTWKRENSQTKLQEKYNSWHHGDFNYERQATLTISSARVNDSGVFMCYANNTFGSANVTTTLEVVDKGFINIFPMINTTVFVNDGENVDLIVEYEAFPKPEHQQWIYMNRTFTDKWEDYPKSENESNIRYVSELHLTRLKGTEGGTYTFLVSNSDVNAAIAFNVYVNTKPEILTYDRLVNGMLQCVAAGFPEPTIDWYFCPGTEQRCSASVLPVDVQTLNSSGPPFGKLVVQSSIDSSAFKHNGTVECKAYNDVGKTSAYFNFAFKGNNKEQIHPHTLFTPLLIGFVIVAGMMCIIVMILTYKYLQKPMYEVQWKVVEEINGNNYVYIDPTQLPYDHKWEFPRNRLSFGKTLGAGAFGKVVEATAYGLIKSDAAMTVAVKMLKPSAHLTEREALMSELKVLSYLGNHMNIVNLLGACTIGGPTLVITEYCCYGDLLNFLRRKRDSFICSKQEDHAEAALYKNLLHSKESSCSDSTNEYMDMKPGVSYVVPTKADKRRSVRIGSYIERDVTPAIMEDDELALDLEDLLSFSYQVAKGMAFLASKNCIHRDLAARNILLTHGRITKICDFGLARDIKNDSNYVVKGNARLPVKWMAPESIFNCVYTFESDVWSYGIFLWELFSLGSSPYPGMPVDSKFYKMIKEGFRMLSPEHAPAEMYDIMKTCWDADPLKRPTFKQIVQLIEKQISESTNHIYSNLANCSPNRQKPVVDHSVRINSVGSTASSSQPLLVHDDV
Receptor-type tyrosine-protein kinase FLT3 (Homo sapiens), sequence (P36888 whole entry): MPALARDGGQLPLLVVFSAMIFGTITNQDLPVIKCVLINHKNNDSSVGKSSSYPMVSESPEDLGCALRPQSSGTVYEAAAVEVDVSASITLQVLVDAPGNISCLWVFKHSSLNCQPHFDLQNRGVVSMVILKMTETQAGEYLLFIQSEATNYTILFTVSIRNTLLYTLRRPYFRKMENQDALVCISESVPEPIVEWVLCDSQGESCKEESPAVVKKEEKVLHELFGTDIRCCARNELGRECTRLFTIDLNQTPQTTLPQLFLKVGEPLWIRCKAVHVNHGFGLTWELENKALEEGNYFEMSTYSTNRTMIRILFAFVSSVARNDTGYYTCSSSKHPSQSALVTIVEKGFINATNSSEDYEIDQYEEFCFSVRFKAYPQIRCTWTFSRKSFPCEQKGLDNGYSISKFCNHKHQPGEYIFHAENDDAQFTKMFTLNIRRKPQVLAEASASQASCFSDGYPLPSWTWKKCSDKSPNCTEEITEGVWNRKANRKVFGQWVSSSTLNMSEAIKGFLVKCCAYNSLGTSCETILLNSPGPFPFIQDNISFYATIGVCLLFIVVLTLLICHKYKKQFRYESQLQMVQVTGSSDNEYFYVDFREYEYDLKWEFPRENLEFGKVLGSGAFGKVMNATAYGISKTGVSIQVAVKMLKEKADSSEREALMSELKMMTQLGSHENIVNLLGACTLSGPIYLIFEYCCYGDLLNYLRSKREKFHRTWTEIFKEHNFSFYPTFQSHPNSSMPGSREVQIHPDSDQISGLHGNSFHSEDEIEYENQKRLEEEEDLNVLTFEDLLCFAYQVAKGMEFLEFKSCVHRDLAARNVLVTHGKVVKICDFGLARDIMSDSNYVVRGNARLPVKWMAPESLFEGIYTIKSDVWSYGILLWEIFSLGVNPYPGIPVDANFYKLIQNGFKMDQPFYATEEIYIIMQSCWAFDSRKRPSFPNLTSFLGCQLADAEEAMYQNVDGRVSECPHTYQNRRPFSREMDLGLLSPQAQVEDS

Row | inhibition [1] | inhibition [2] | inhibition [3] | inhibition [4] | SMILES
1 | 19.2% | 0% | 0% | 0% | O=C(Nc1ccccc1)Nc1ccc2c(c1)NC(=O)/C2=C/c1ccc(-c2cccc([N+](=O)[O-])c2)o1
2 | 49.3% | 0% | 32.7% | 0% | COc1ccc(NC(=O)Nc2ccc3c(c2)NC(=O)/C3=C/c2ccc(-c3cccc([N+](=O)[O-])c3)o2)cc1
3 | 36.2% | 1% | 42.4% | 33% | COc1ccc(NC(=O)Nc2ccc3c(c2)NC(=O)/C3=C\c2ccncc2)cc1
4 | 18.1% | 3.6% | 17.8% | 4% | COc1ccc(NC(=O)Nc2ccc3c(c2)NC(=O)/C3=C\c2ccccn2)cc1
5 | 71.4% | 5% | 86.7% | – | COc1ccc(NC(=O)Nc2ccc3c(c2)NC(=O)/C3=C\c2ccc(O)c(OC)c2)cc1
6 | 50.3% | 0% | 5.8% | 42% | COc1ccc(NC(=O)Nc2ccc3c(c2)NC(=O)/C3=C/c2ccc(Cl)c(Cl)c2)cc1
7 | 2.5% | – | – | – | COc1ccc(NC(=O)Nc2ccc3c(c2)NC(=O)/C3=C/c2cccc(OC)c2)cc1
8 | 17.5% | 7.4% | 23% | 0% | COc1ccc(NC(=O)Nc2ccc3c(c2)NC(=O)/C3=C\c2[nH]c(C)c(-c3ccccc3)c2C)cc1
9 | 16.7% | 1.7% | – | – | COc1ccc(NC(=O)Nc2ccc3c(c2)/C(=C\c2ccc(-c4cccc([N+](=O)[O-])c4)o2)C(=O)N3)cc1
10 | 22.9% | 6.5% | 50% | 20% | O=C(Nc1ccc(Cl)cc1)Nc1ccc2c(c1)NC(=O)/C2=C/c1ccc(-c2cccc([N+](=O)[O-])c2)o1
11 | 0% | 12.1% | 2.4% | 0% | COc1ccc(NC(=O)Nc2ccc3c(c2)/C(=C\c2ccccc2)C(=O)N3)cc1

Second part, the compound before the results:

Row | SMILES | inhibition [1] | inhibition [2] | inhibition [3] | inhibition [4]
12 | COc1cc(/C=C2\C(=O)Nc3cc(NC(=O)Nc4ccccc4)ccc32)ccc1O | 28.5% | 0% | 32.5% | –
13 | O=C(Nc1ccccc1)Nc1ccc2c(c1)NC(=O)/C2=C/c1ccc(Cl)c(Cl)c1 | 26.8% | 11.5% | 2.1% | 23%
14 | C=CCc1ccc(NC(=O)Nc2ccc3c(c2)/C(=C/c2ccc[nH]2)C(=O)N3)cc1 | 42.5% | 48% | – | –
15 | COc1ccc(NC(=O)Nc2ccc3c(c2)NC(=O)/C3=C/c2ccc(OC)c(OC)c2OC)cc1 | 35.5% | 1.6% | 70.2% | 15%
16 | Cc1[nH]c(/C=C2\C(=O)Nc3ccc(NC(=O)Nc4ccccc4)cc32)c(C)c1-c1ccccc1 | 5% | 15.1% | 18.9% | 35%
17 | COc1ccc(NC(=O)Nc2ccc3c(c2)NC(=O)/C3=C\c2ccsc2)cc1 | 76.8% | – | 82.4% | 35.7%
18 | COc1ccc(NC(=O)Nc2cccc3c2NC(=O)/C3=C\c2ccsc2)cc1 | 0% | 6.5% | 8% | –
19 | O=C(Nc1ccccc1)Nc1ccc2c(c1)/C(=C/c1ccc[nH]1)C(=O)N2 | 59.8% | 41.9% | 30.1% | 48%
20 | O=C(Nc1ccccc1)Nc1ccc2c(c1)NC(=O)/C2=C\c1ccc([N+](=O)[O-])cc1 | 15.9% | 11.3% | 17.5% | 0%
21 | O=C(Nc1ccc(Cl)cc1)Nc1ccc2c(c1)/C(=C\c1ccccc1)C(=O)N2 | 0% | 0% | 7.8% | 12%
22 | COc1ccc(NC(=O)Nc2cccc3c2NC(=O)/C3=C\c2[nH]c(C)c(CC(=O)O)c2C)cc1 | 1.1% | 0% | 0.9% | –

Source: ChEMBL document CHEMBL1177651, “Synthesis and structure-activity relationship of 6-arylureido-3-pyrrol-2-ylmethylideneindolin-2-one derivatives as potent receptor tyrosine kinase inhibitors” (Bioorg Med Chem, 2010)
